From paper PMC6138693, “Structural determinants of Rab11 activation by the guanine nucleotide exchange factor SH3BP5” (Nature Communications, 2018) come the findings set out here.

Positions count from the first letter of the chain named. A value given as a limit tells only on which side of the number the result lay.

Targets include Rab11A K13N (human) (UniProt P62491); Rab11A K41P (human) (UniProt P62491); Rab11A L38P (human) (UniProt P62491); Rab11A S40F (human) (UniProt P62491).
The target in another experiment is T1, Rab2A (Homo sapiens, UniProt P61019).
T1 construct: recombinant in E. coli, N-terminal GST cut by TEV
T1 sequence (P61019 whole entry): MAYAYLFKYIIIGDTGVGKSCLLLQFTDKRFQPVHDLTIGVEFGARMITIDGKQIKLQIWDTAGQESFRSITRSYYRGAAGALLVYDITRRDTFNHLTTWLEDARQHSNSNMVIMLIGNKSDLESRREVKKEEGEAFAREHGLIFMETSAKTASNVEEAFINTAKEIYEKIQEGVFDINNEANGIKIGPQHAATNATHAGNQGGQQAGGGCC
As to the kind of experiment: Mant-GDP loading, fluorescence release assay. It is filed as binding. The following applies: labelled compound; nucleotide site; Mg2+, 100 uM GTPgammaS, SH3BP5 as exchange factor.

The next experiment concerns the target T2, Rab12 (Homo sapiens, UniProt Q6IQ22).
T2 construct: recombinant in E. coli, N-terminal GST cut by TEV
Kind of experiment: Mant-GDP loading, fluorescence release assay. It is filed as binding. The following applies: labelled compound; nucleotide site; Mg2+, 100 uM GTPgammaS, SH3BP5 as exchange factor.

The target of a further experiment is T3, Rab4B (Homo sapiens, UniProt P61018).
T3 construct: recombinant in E. coli, N-terminal GST cut by TEV
T3 sequence (P61018 whole entry): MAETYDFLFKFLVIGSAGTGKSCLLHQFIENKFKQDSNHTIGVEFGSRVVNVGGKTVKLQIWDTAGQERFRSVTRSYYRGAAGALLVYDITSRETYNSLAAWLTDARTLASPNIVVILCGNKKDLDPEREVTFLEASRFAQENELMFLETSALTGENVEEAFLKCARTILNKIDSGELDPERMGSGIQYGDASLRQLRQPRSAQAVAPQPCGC
Kind of experiment: Mant-GDP loading, fluorescence release assay. The following applies: labelled compound; nucleotide site; Mg2+, 100 uM GTPgammaS, SH3BP5 as exchange factor. Type of experiment: binding.

The target of experiment [1] is T4, Rab11A (Homo sapiens, UniProt P62491, F36A, form not given).
T4 construct: Rab11A with C-terminal His-tag kept, N-terminal GST cut by TEV; E. coli BL21 C41 (residues 1-211 given for the His-tagged HDX construct)
T4 sequence (P62491 1-211 F36A, form open): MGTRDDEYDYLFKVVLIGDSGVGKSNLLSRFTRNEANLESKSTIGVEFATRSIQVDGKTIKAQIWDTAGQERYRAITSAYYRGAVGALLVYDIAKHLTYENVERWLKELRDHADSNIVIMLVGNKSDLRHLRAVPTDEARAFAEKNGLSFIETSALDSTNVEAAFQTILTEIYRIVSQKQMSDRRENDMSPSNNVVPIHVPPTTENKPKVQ
Kind of experiment: Mant-GDP loading, then fluorescence release on GEF-driven exchange. Type of experiment: binding. The following applies: labelled compound; nucleotide site; Mg2+, 100 uM GTPgammaS, with and without SH3BP5.

For experiment [2], the target named is T5, Rab11A (Homo sapiens, UniProt P62491).
T5 construct: Rab11A with C-terminal His-tag kept, N-terminal GST cut by TEV; E. coli BL21 C41 (residues 1-211 given for the His-tagged HDX construct)
T5 sequence (P62491 1-211): as the sequence (P62491 1-211 F36A, form open) above, with A36F counted along it
The description is as above. Type of experiment: binding. The following applies: labelled compound; nucleotide site; Mg2+, 100 uM GTPgammaS, SH3BP5 as exchange factor.

The target of experiment [3] is T6, Rab11A (Homo sapiens, UniProt P62491, Q70L, form not given).
T6 construct: Rab11A with C-terminal His-tag kept, N-terminal GST cut by TEV; E. coli BL21 C41 (residues 1-211 given for the His-tagged HDX construct)
T6 sequence (P62491 1-211 Q70L, form open): as the sequence (P62491 1-211 F36A, form open) above, with A36F, Q70L counted along it
Described as above. The following applies: labelled compound; nucleotide site; Mg2+, 100 uM GTPgammaS, SH3BP5 as exchange factor. It is filed as binding.

Experiment [4] deals with T7, Rab11A (Homo sapiens, UniProt P62491, R82C, form not given).
T7 construct: Rab11A with C-terminal His-tag kept, N-terminal GST cut by TEV; E. coli BL21 C41 (residues 1-211 given for the His-tagged HDX construct)
T7 sequence (P62491 1-211 R82C, form open): as the sequence (P62491 1-211 F36A, form open) above, with A36F, R82C counted along it
The description is as above. Type of experiment: binding. The following applies: labelled compound; nucleotide site; Mg2+, 100 uM GTPgammaS, with and without SH3BP5.

In experiment [5] the target is T8, Rab11A (Homo sapiens, UniProt P62491, K24R, form not given).
T8 construct: Rab11A with C-terminal His-tag kept, N-terminal GST cut by TEV; E. coli BL21 C41 (residues 1-211 given for the His-tagged HDX construct)
T8 sequence (P62491 1-211 K24R, form open): as the sequence (P62491 1-211 F36A, form open) above, with K24R, A36F counted along it
Described as above. Type of experiment: binding. To be noted: labelled compound; nucleotide site; Mg2+, 100 uM GTPgammaS, with and without SH3BP5.

The next experiment addresses T9, Rab25 (Homo sapiens, UniProt P57735).
T9 construct: C-terminal His-tag, N-terminal GST cut by TEV; E. coli Rosetta
The experiment is described as above. Type of experiment: binding. To be noted: labelled compound; nucleotide site; Mg2+, 100 uM GTPgammaS, SH3BP5 as exchange factor.

In the next experiment the target is T10, Rab8 (Homo sapiens, UniProt P61006).
T10 construct: gene RAB8A; recombinant in E. coli, N-terminal GST cut by TEV
T10 sequence (P61006 whole entry): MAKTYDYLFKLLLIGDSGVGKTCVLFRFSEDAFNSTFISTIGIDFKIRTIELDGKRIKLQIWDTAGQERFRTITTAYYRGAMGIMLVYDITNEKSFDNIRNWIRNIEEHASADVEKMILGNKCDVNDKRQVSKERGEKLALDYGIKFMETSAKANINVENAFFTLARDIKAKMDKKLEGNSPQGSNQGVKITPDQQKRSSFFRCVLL
Kind of experiment: Mant-GDP loading, fluorescence release assay. Type of experiment: binding. The following applies: labelled compound; nucleotide site; Mg2+, 100 uM GTPgammaS, SH3BP5 as exchange factor.

In experiment [6] the target is T11, Rab11A (Homo sapiens, UniProt P62491, S40F, form not given).
T11 construct: Rab11A with C-terminal His-tag kept, N-terminal GST cut by TEV; E. coli BL21 C41 (residues 1-211 given for the His-tagged HDX construct)
T11 sequence (P62491 1-211 S40F, form open): as the sequence (P62491 1-211 F36A, form open) above, with A36F, S40F counted along it
As to the kind of experiment: Mant-GDP loading, then fluorescence release on GEF-driven exchange. Type of experiment: binding. To be noted: labelled compound; nucleotide site; Mg2+, 100 uM GTPgammaS, with and without SH3BP5.

A further experiment addresses T12, Rab14 (Homo sapiens, UniProt P61106).
T12 construct: recombinant in E. coli, N-terminal GST cut by TEV
As to the kind of experiment: Mant-GDP loading, fluorescence release assay. Type of experiment: binding. The following applies: labelled compound; nucleotide site; Mg2+, 100 uM GTPgammaS, SH3BP5 as exchange factor.

Experiment [7] addresses T13, Rab11A (Homo sapiens, UniProt P62491, S25N, form not given).
T13 construct: Rab11A with C-terminal His-tag kept, N-terminal GST cut by TEV; E. coli BL21 C41 (residues 1-211 given for the His-tagged HDX construct)
As to the kind of experiment: Mant-GDP loading, then fluorescence release on GEF-driven exchange. The following applies: labelled compound; without SH3BP5. Type of experiment: binding.

Experiment [8] concerns the target T14, Rab11A (Homo sapiens, UniProt P62491, L38P, form not given).
T14 construct: Rab11A with C-terminal His-tag kept, N-terminal GST cut by TEV; E. coli BL21 C41 (residues 1-211 given for the His-tagged HDX construct)
The experiment is described as above. It is filed as binding. The following applies: labelled compound; nucleotide site; Mg2+, 100 uM GTPgammaS, with and without SH3BP5.

The target in experiment [9] is T15, Rab11A (Homo sapiens, UniProt P62491, I44A, form not given).
T15 construct: Rab11A with C-terminal His-tag kept, N-terminal GST cut by TEV; E. coli BL21 C41 (residues 1-211 given for the His-tagged HDX construct)
T15 sequence (P62491 1-211 I44A, form open): as the sequence (P62491 1-211 F36A, form open) above, with A36F, I44A counted along it
The description is as above. It is filed as binding. To be noted: labelled compound; nucleotide site; Mg2+, 100 uM GTPgammaS, with and without SH3BP5.

The target of experiment [10] is WT Rab11A (1–211, C-term his) (human) (UniProt P62491).
Chain of WT Rab11A (1–211, C-term his) (human) (P62491 1-211): as the sequence (P62491 1-211 F36A, form open) above, with A36F counted along it

T12 sequence (P61106 whole entry): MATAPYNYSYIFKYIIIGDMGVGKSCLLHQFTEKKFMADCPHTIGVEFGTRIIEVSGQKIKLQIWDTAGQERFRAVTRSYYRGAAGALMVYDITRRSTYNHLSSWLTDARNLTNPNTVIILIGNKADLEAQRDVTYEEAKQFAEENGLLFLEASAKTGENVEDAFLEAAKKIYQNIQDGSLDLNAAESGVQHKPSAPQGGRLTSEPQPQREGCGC
T9 sequence (P57735 whole entry): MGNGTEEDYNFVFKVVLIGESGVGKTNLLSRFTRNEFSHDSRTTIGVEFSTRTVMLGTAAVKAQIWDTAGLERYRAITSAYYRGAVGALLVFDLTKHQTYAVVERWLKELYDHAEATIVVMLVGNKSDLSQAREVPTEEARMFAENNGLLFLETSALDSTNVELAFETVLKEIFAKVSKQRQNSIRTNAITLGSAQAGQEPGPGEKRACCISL
T2 sequence (Q6IQ22 whole entry): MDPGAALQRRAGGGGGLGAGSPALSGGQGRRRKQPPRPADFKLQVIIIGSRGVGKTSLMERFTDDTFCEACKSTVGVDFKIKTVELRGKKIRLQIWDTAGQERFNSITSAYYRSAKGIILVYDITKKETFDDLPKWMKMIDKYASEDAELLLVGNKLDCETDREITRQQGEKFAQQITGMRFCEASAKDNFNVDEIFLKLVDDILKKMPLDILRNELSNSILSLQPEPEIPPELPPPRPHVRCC
T13 sequence (P62491 1-211 S25N, form open): as the sequence (P62491 1-211 F36A, form open) above, with S25N, A36F counted along it
T14 sequence (P62491 1-211 L38P, form open): as the sequence (P62491 1-211 F36A, form open) above, with A36F, L38P counted along it
Chain of Rab11A K13N (human) (P62491 whole entry K13N): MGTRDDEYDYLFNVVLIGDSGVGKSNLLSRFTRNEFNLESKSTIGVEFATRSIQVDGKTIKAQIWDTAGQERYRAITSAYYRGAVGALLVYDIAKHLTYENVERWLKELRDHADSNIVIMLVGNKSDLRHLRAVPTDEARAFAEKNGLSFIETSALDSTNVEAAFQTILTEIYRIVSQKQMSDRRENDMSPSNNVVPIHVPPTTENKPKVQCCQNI

For the molecule `CNc1ccccc1C(=O)O[C@H]1C[C@H](n2cnc3c(=O)[nH]c(N)nc32)O[C@@H]1COP(=O)(O)OP(=O)(O)O` [Mant-GDP, 3-(N-methyl-anthraniloyl)-2-deoxy-GDP], the “Mant-GDP loading, fluorescence release assay” value at Rab2A, on Rab12, on Rab4B, at Rab8 and on Rab14 was “panel of evolutionarily related Rab GTPases loaded with Mant-GDP” each time. Besides, the “Mant-GDP loading, then fluorescence release on GEF-driven exchange” value at Rab11A [1] was “F36 and I44 residues, with mutation of these residues to Alanine”; on Rab11A [2], “Rab11 isoforms Rab11A and Rab25 loaded with the fluorescent GDP analog”; on Rab11A [3], “GEF assays on Q70L Rab11A showed a slightly elevated GEF-mediated nucleotide exchange rate”; on Rab11A [4], “with R82 only partially decreasing SH3BP5 GEF activity”; at Rab11A [5], “this mutant had rapid nucleotide exchange even in the absence of SH3BP5”; on Rab25 it was “Rab11 isoforms Rab11A and Rab25 loaded with the fluorescent GDP analog”. In addition, the “Mant-GDP loading, then fluorescence release on GEF-driven exchange” value at Rab11A [6] was “Rab2A (L38P), Rab8 (S40F), and Rab14 (K41P) were also found to decrease GEF activity”; at Rab11A [7] it was “Rab11A (S25N) caused rapid release of Mant-GDP even in the absence of SH3BP5”; on Rab11A [8] it was “Rab2A (L38P), Rab8 (S40F), and Rab14 (K41P) were also found to decrease GEF activity”; on Rab11A [9], “F36 and I44 residues, with mutation of these residues to Alanine”.

B1: SH3BP5 (LNQ52AAA) (natural protein)
chain: MDAALKRSRSEEPAEILPPARDEEEEEEEGMEQGLEEEEEVDPRIQGELEKAAASTDDINRRETELEDARQKFRSVLVEATVKLDELVKKIGKAVEDSKPYWEARRVARQAQLEAQKATQDFQRATEVLRAAKETISLAEQRLLEDDKRQFDSAWQEMLNHATQRVMEAEQTKTRSELVHKETAARYNAAMGRMRQLEKKLKRAINKSKPYFELKAKYYVQLEQLKKTVDDLQAKLTLAKGEYKMALKNLEMISDEIHERRRSSAMGPRGCGVGAEGSSTSVEDLPGSKPEPDAISVASEAFEDDSCSNFVSEDDSETQSVSSFSSGPTSPSEMPDQFPAVVRPGSLDLPSPVSLSEFGMMFPVLGPRSECSGASSPECEVERGDRAEGAENKTSDKANNNRGLSSSSGSGGSSKSQSSTSPEGQALENRMKQLSLQCSKGRDGIIADIKMVQIG
B1: in [10], the GEF activity on Rab11A (Mant-GDP release), mutant (1000 nM) compared with WT SH3BP5 (52 nM) (fold decrease) is over 100.

B2: SH3BP5 (1–455), full-length (natural protein)
chain: B1 chain with A52L, A53N, A54Q
In the case of B2, the SH3BP5-mediated GEF activity (Mant-GDP release, kcat/Km), mutant compared with WT Rab11A (fold decrease) in the experiment with Rab11A K13N (human), with Rab11A K41P (human), with Rab11A L38P (human) and with Rab11A S40F (human) was over 100 in each case.
